Experimental data taken from patent publication US20240400515A1, “NPM1-DEPENDING LEUKEMIA AGENTS” (UNIVERSIDAD COMPLUTENSE DE MADRID, priority 2021, published 2024).
“Also recorded” adds a separate entry of the source.

Key:
[1] = tested on: healthy donor bone marrow cells; test: Colony formation unit assay in CD34+ healthy donor bone marrow cells; format: cell-based; details: Homo sapiens, Bone marrow cell, 336 h; methylcellulose culture, 14 days, FIG. 3; read-out: CFU-E: IC50 healthy donors
Experimental: (§1) Sorted CD34^+ cells were plated in 24-well plates at a density of 3×10^4 cells per well in methylcellulose-based medium MethoCult GF H4434 (StemCell Technologies) containing stem cell factor (SCF), interleukin-3 (IL-3), erythropoietin (EPO) and granulocyte macrophage colony stimulating factor (GM-CSF). Test compound was added directly to the cells within the methylcellulose medium, and incubated at 37° C. in a humidified atmosphere in the presence of 5% CO2 for 14 days. Total cells from colonies formed were counted manually using an inverted microscope/phase contrast microscopy with trypan-blue. The data were presented as percentage of colonies or percentage of viable cells relative to DMSO, obtained from two or three independent experiments performed in duplicate.

[2] = tested on: MOLM13 (NPM1 C−); test: Viability assay (WST-1) in MOLM13 cell line; format: cell-based; details: Homo sapiens, MOLM-13; dose-response curve, FIG. 1
[3] = tested on: OCI-AML3-ffLuc-GFP cells; test: AML xenograft mouse model (OCI-AML3-ffLuc-GFP cells in NSG mice); format: in vivo; details: ip administration for 3 weeks, NSG mice with 1 million OCI-AML3-GFP-Luc cells, versus vehicle, FIG. 5B
Experimental: An AML xenograft mouse model was used for the study of in vivo efficacy. Female 6-8 week-old NOD.Cg-Prkdcscid II2rgtm1WjI/SzJ (NSG) mice (Vivotecnia, Madrid, Spain) were inoculated intravenously by tail vein injection with OCI-AML3-ffLuc-GFP cells (1×10^6). The animal experiment was performed according to the guidelines of the Institutional Animal Care and Use Committees of the Comunidad de Madrid, Spain, under approved protocol (PROEX 023/17). Four days later, mice were randomized into three groups of 10 animals: the first group received intraperitoneal injections of vehicle (0.9% saline solution) five days a week; the second group received 25 mg/kg of compound Ic intraperitoneally five times a week for four weeks; the third group received intraperitoneal injections of 50 mg/kg of compound Ic five times weekly for three weeks. Mice were monitored for tumor burden, distribution and engraftment every week by IVIS whole-body bioluminescence imaging. Bioimaging of […] burden in vivo was performed by IVIS Imaging system (Caliper Life Science). Before performing, Luciferin (D-luciferin monosodium salt, Thermofisher) was prepared in PBS and 150 mg/kg of Luciferin was injected i.p.; after 10 min, luminescence signal can be detected. The signal data was analyzed by the Living Image 4.2 (Caliper Life Science) software.

[4] = tested on: OCI-AML3 (NPM1 C+); test: Viability assay (WST-1) in OCI-AML3 cell line; format: cell-based; details: Homo sapiens, OCI-AML-3, viability percentage relative to vehicle, 24 h
Experimental: (§2) Two different acute myeloid leukemia cell lines, OCI-AML3 (NPM1 C+) and MOLM13 (NPM1 C−) were obtained from the DSMZ cell repository (Braunschweig, Germany). Cell lines were expanded and cryogenically frozen upon acquisition to establish stocks in liquid nitrogen until use. Cultured cells were maintained at 37° C. in a humidified incubator in an atmosphere of 5% CO2 and passaged every 2-3 days. RPMI media (Gibco/Life Technologies; Grand Island, NY) supplemented with 10% fetal bovine serum (FBS) (Hyclone) and 1% penicillin/streptomycin was used.
(§3) The sensitivity of the compounds on OCI-AML3 (NPM1 C+) and MOLM13 (NPM1 C−) cell viability was assessed as an in-vitro acute myeloid leukemia (AML) model. Briefly, cells were seeded at a density of 2×10^4 cells/100 μL/well in 96-well plates. Cell lines were treated for 24 h with the test compound diluted in DMSO at the concentration of 5 μM or vehicle (DMSO). Then, 10 μL of WST-1 solution ((2-(4-iodophenyl)-3-(4-nitrophenyl)-5-(2,4-disulfophenyl)-2H-tetrazolium monosodium salt, Merck) were added and the cells were incubated for 4 h at 37° C. The absorbance was measured at 450 nm using an Asys UVM 340 microplate reader (Biochrom Ltd., Cambridge, UK). The background absorbance of blank wells containing only medium was subtracted from each test well. The data were reported as viability percentage relative to vehicle, obtained from two or three independent experiments performed in triplicate (Table 1).

[5] = tested on: MOLM13 (NPM1 C−); test: Viability assay (WST-1) in MOLM13 cell line; format: cell-based; details: Homo sapiens, MOLM-13, viability percentage relative to vehicle, 24 h
Experimental: as §2, §3

[6] = tested on: OCI-AML3 (NPM1 C+); test: Viability assay (WST-1) in OCI-AML3 cell line; format: cell-based; details: Homo sapiens, OCI-AML-3; dose-response curve, FIG. 1
[7] = molecular target: T1, NPM1 cytoplasmic form (NPM1 C+) (Homo sapiens, UniProt P06748); test: Effect on NPM1 cytoplasmic form (NPM1 C+) by confocal microscopy in OCI-AML3; format: cell-based; details: OCI-AML3, 10 µM, 48 h, FIG. 4
T1 construct: endogenous in cells; host or cells: OCI-AML3 (DSMZ)
Experimental: OCI-AML3 (NPM1 C+) cells were plated onto glass coverslips or Greiner Bio-One μClear black 96-well plate (7.5×10^4 cells per well) and treated with test compound for 48 h. Then, cells were fixed with 4% paraformaldehyde for 15 min, permeabilized with 0.1% Triton X-100 for 30 min, and blocked in 5% bovine serum albumin during 1 h at rt. Incubation with primary antibodies against NPM1 (7H10B9, NOVUS Biologicals) was carried out overnight at 4° C. Alexa-488 conjugated anti-mouse or anti-rabbit antibodies (Molecular Probes) were used for detection of the reported proteins by confocal microscopy. Nuclei were counterstained with 4′,6-diamidino-2-phenylindole (DAPI) bath. A total of 35 fields per well were acquired with a ×40 magnification lens for those samples run in the Opera HCS system (Perkin Elmer). Images were segmented using the DAPI staining and the coefficient of variation of NPM1 intensity per nucleus/cytoplasm was calculated using Definiens Developer XD software.

[8] = tested on: healthy donor bone marrow cells; test: Viability assay in CD34+ healthy donor bone marrow cells; format: cell-based; details: Homo sapiens, Bone marrow cell, FIG. 2, read-out: IC50 healthy donors
Experimental: as §3
(§4) Primary cells from AML bone marrow patients CD34+ were isolated by anti-CD34+ microbeads (Miltenyi Biotech) from bone marrow of healthy donors and AML patients. Briefly, bone marrow samples were collected from AML and healthy patient pelvic bone, and were subjected to Ficoll-Paque density gradient separation to isolate mononuclear cells. […]

[9] = tested on: AML primary cells NPM1 WT; test: Viability assay in primary CD34+ cells from AML patients, NPM1 WT; format: cell-based; details: Homo sapiens, FIG. 2
Experimental: as §3, §4

[10] = Pharmacokinetic study in mice; format: in vivo, mouse; parameters: in-vivo diffusion: dose or concentration left out as unconfirmed; details: FIG. 5A
Experimental: Pharmacokinetic studies for compound Ic were performed. […] The area of the molecular peak allows to calculate the concentration of the compound present in mice serum at each time.

[11] = tested on: AML primary cells NPM1 mut; test: Viability assay in primary CD34+ cells from AML patients, NPM1 mut; format: cell-based; details: Homo sapiens, FIG. 2
Experimental: as §3, §4

[12] = tested on: AML primary cells; test: Colony formation unit assay in primary CD34+ cells from AML patients; format: cell-based; details: Homo sapiens, 336 h; methylcellulose culture, 14 days, FIG. 3; read-out: CFU-E: IC50 AML
Experimental: as §1

T1 sequence (P06748 with tags, fused parts or gaps limits assumed): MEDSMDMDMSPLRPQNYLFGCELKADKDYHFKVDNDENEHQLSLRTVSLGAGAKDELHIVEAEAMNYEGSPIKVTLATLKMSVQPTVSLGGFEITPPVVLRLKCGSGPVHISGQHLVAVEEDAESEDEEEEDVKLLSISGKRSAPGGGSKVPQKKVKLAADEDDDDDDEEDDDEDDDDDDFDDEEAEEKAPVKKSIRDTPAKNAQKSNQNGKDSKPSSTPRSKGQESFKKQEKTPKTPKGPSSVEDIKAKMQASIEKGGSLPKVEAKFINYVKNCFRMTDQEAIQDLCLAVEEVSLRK

Row | IC50 [2] [µM] | IC50 [6] [µM] | levels in mouse peripheral blood ([10]; 25 mg/kg intraperitoneal, first 6 h post-injection) [ng/mL] | in-vivo diffusion ([10]; plasma concentration 30 minutes to 6 hours after ip administration) | IC50 [12] [µM] | Compound | IC50 [1] [µM] | AML cell (tumour) infiltration [3] | viability at 5 µM [4] [%] | viability at 5 µM [5] [%] | Effect on NPM1 / NPM1C+ (confocal microscopy) [7] | IC50 [8] [µM] | IC50 [9] [µM] | IC50 [11] [µM]
1 | 41.8 | 7.59 | 200 to 600 | correct in-vivo diffusion was observed | 1.26 | COc1ccc([C@H]2Cc3[nH]c4ccccc4c3[C@@H](CCNCC3CC3)[C@@H]2N)cc1 [Ic, (2R,3R,4R)-4-{2-[(Cyclopropylmethyl)amino]ethyl}-2-(4-methoxyphenyl)-2,3,4,9-tetrahydro-1H-carbazol-3-amine] | 4.6 | Tumour infiltration decrease was observed | 40 ± 2 | 55 ± 6 | inhibition of the NPM1 cytoplasmic form (NPM1 C+) of the protein; also recorded: deplete NPM1 in OCI-AML3, especially NPM1C+ form | 7.89 | 5.03 | 1.24
2 |  |  |  |  |  | Cc1ccc([C@H]2Cc3[nH]c4ccccc4c3[C@@H](CCNCC(C)C)[C@@H]2N)cc1 [Ix, (2R,3R,4R)-2-(4-Methylphenyl)-4-{2-[(2-methylpropyl)amino]ethyl}-2,3,4,9-tetrahydro-1H-carbazol-3-amine] |  |  | 0 | 0 |  |  |  | 
3 |  |  |  |  |  | Cc1ccc([C@H]2Cc3[nH]c4ccccc4c3[C@@H](CCNC(C)C)[C@@H]2N)cc1 [Iy, (2R,3R,4R)-2-(4-Methylphenyl)-4-{2-[(propan-2-yl)amino]ethyl}-2,3,4,9-tetrahydro-1H-carbazol-3-amine] |  |  | 8 | 4 ± 4 |  |  |  | 
4 |  |  |  |  |  | CCNCC[C@@H]1c2c([nH]c3ccccc23)C[C@H](c2ccc(C)cc2)[C@H]1N [Iz, (2R,3R,4R)-4-[2-(Ethylamino)ethyl]-2-(4-methylphenyl)-2,3,4,9-tetrahydro-1H-carbazol-3-amine] |  |  | 8 ± 4 | 8 ± 3 |  |  |  | 
